The values that follow come from patent US20220251163A1 (Sinopep-Allsino Biopharmaceutical Co., Ltd., priority 2019, published 2022).

Like-named read-outs stand apart in the source and are kept apart here. Where a SMILES comes first, the peptide text is derived from it.

In test [1] the target is T1, mGLP-1R (Mus musculus, UniProt O35659).
T1 construct: expressed in transfected cells; host or cells: HEK293
T1 sequence (O35659 22-463): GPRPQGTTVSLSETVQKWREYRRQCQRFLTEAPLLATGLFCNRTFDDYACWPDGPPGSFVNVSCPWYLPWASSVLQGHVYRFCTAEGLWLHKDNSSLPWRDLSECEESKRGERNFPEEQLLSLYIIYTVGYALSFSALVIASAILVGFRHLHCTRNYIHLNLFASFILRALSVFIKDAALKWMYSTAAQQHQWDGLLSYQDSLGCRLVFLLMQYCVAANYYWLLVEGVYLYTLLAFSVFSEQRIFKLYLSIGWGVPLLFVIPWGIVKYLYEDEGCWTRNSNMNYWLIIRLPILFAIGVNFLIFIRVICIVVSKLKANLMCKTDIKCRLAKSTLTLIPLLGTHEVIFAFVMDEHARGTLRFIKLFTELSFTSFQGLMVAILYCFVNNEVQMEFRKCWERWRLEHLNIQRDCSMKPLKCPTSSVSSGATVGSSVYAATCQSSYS
Put plainly: GLP-1R agonist activity, cAMP in transfected HEK293 cells. The format is cell-based.
Procedure: HEK293 cells were co-transfected with cDNA encoding GLP-1R or GIPR. In a test for determining the compound, the cells were inoculated in a 96-well plate 2 h in advance, the polypeptide compound was dissolved with DMSO, and diluted to different multiples with a culture medium containing 0.1% bovine serum albumin and added to the co-transfected cells. After the cells were incubated for 20 min, fluorescence values were determined through microplate reader of an ELISA kit of the Cisbo Company, a standard curve was established to convert the fluorescence values into corresponding cAMP values, and the EC50 value of the compound was calculated through nonlinear regression of Graphpad Prism 5.0 software.

The target of test [2] is T2, mGIPR (Mus musculus, UniProt Q0P543).
T2 construct: expressed in transfected cells; host or cells: HEK293
T2 sequence (Q0P543 19-460): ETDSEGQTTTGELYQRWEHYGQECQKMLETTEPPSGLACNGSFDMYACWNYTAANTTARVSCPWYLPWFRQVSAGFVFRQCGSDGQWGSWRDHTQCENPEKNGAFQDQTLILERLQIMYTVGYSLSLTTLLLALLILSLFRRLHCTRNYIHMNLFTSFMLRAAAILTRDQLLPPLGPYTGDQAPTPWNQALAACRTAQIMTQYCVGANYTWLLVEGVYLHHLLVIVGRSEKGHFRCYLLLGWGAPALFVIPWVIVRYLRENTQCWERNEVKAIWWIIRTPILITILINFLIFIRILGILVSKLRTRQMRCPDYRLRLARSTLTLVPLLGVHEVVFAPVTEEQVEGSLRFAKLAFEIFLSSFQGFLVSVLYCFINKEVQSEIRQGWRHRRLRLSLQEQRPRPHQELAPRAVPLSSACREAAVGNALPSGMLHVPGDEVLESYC
In words: GIPR agonist activity, cAMP in transfected HEK293 cells. The format is cell-based.
Procedure: HEK293 cells were co-transfected with cDNA encoding GLP-1R or GIPR. In a test for determining the compound, the cells were inoculated in a 96-well plate 2 h in advance, the polypeptide compound was dissolved with DMSO, and diluted to different multiples with a culture medium containing 0.1% bovine serum albumin and added to the co-transfected cells.

Setting [3] is: HEK293 cells transfected with GLP-1R, cAMP, 20 min incubation, read-out: mGLP-1R EC50.
[4] abbreviates: HEK293 cells transfected with GIPR, cAMP, 20 min incubation, read-out: mGIPR EC50.

As to `CC[C@H](C)[C@H](NC(=O)[C@H](CC(C)C)NC(=O)[C@H](Cc1c[nH]c2ccccc12)NC(=O)[C@H](CCC(N)=O)NC(=O)[C@@H](NC(=O)[C@H](Cc1ccccc1)NC(=O)[C@H](C)NC(=O)[C@H](CCCCNC(=O)COCCOCCNC(=O)COCCOCCNC(=O)CC[C@H](NC(=O)CCCCCCCCCCCCCCCCC(=O)O)C(=O)O)NC(=O)[C@H](CCC(N)=O)NC(=O)[C@H](C)NC(=O)[C@@H](NC(=O)[C@H](CCCCN)NC(=O)[C@H](CC(=O)O)NC(=O)[C@H](CC(C)C)NC(=O)C(C)(C)NC(=O)[C@@H](NC(=O)[C@H](CO)NC(=O)[C@H](Cc1ccc(O)cc1)NC(=O)[C@H](CC(=O)O)NC(=O)[C@H](CO)NC(=O)[C@@H](NC(=O)[C@H](Cc1ccccc1)NC(=O)[C@@H](NC(=O)CNC(=O)[C@H](CCC(=O)O)NC(=O)C1(NC(=O)[C@@H](N)Cc2ccc(O)cc2)CCCC1)[C@@H](C)O)[C@@H](C)O)[C@@H](C)CC)[C@@H](C)CC)C(C)C)C(=O)N[C@@H](C)C(=O)NCC(=O)NCC(=O)N1CCC[C@H]1C(=O)N[C@@H](CO)C(=O)N[C@@H](CO)C(=O)NCC(=O)N[C@@H](C)C(=O)N1CCC[C@H]1C(=O)N1CCC[C@H]1C(=O)N1CCC[C@H]1C(=O)N[C@@H](CO)C(N)=O` [ID NO: 9], the concentration for a half-maximal effect (EC50) in test [1] was 0.00941 nM; in test [2], 0.00698 nM.

On to `CC[C@H](C)[C@H](NC(=O)[C@H](CC(C)C)NC(=O)[C@H](Cc1c[nH]c2ccccc12)NC(=O)[C@H](CCC(N)=O)NC(=O)[C@@H](NC(=O)[C@H](Cc1ccccc1)NC(=O)[C@H](C)NC(=O)[C@H](CCCCNC(=O)COCCOCCNC(=O)COCCOCCNC(=O)CC[C@H](NC(=O)CCCCCCCCCCCCCCCCC(=O)O)C(=O)O)NC(=O)[C@H](CCC(N)=O)NC(=O)[C@H](C)NC(=O)[C@@H](NC(=O)[C@H](CCCCN)NC(=O)[C@H](CC(=O)O)NC(=O)[C@H](CC(C)C)NC(=O)C1(NC(=O)[C@@H](NC(=O)[C@H](CO)NC(=O)[C@H](Cc2ccc(O)cc2)NC(=O)[C@H](CC(=O)O)NC(=O)[C@H](CO)NC(=O)[C@@H](NC(=O)[C@H](Cc2ccccc2)NC(=O)[C@@H](NC(=O)CNC(=O)[C@H](CCC(=O)O)NC(=O)C(C)(C)NC(=O)[C@@H](N)Cc2ccc(O)cc2)[C@@H](C)O)[C@@H](C)O)[C@@H](C)CC)CCCC1)[C@@H](C)CC)C(C)C)C(=O)N[C@@H](C)C(=O)NCC(=O)NCC(=O)N1CCC[C@H]1C(=O)N[C@@H](CO)C(=O)N[C@@H](CO)C(=O)NCC(=O)N[C@@H](C)C(=O)N1CCC[C@H]1C(=O)N1CCC[C@H]1C(=O)N1CCC[C@H]1C(=O)N[C@@H](CO)C(N)=O` [ID NO: 10], for which the EC50 in test [1] (setting [3]) is 0.00889 nM; in test [2] (setting [4]) it was 0.00811 nM.

Turning to `CCCCCCCCCCCCCCCC(=O)N[C@@H](CCC(=O)NCCCC[C@H](NC(=O)[C@H](CCC(N)=O)NC(=O)[C@H](C)NC(=O)[C@@H](NC(=O)[C@H](CCCCN)NC(=O)[C@H](CC(=O)O)NC(=O)[C@H](CC(C)C)NC(=O)C(C)(C)NC(=O)[C@@H](NC(=O)[C@H](CO)NC(=O)[C@H](Cc1ccc(O)cc1)NC(=O)[C@H](CC(=O)O)NC(=O)[C@H](CO)NC(=O)[C@@H](NC(=O)[C@H](Cc1ccccc1)NC(=O)[C@@H](NC(=O)CNC(=O)[C@H](CCC(=O)O)NC(=O)C(C)(C)NC(=O)[C@@H](N)Cc1ccc(O)cc1)[C@@H](C)O)[C@@H](C)O)[C@@H](C)CC)[C@@H](C)CC)C(=O)N[C@@H](C)C(=O)N[C@@H](Cc1ccccc1)C(=O)N[C@H](C(=O)N[C@@H](CCC(N)=O)C(=O)N[C@@H](Cc1c[nH]c2ccccc12)C(=O)N[C@@H](CC(C)C)C(=O)N[C@H](C(=O)N[C@@H](C)C(=O)NCC(=O)NCC(=O)N1CCC[C@H]1C(=O)N[C@@H](CO)C(=O)N[C@@H](CO)C(=O)NCC(=O)N[C@@H](C)C(=O)N1CCC[C@H]1C(=O)N1CCC[C@H]1C(=O)N1CCC[C@H]1C(=O)N[C@@H](CO)C(N)=O)[C@@H](C)CC)C(C)C)C(=O)O` [ID NO: 11], the EC50 was 0.0243 nM in test [1] (setting [3]) and 0.00632 nM in test [2] (setting [4]).

In the case of `CCCCCCCCCCCCCCCC(=O)N[C@@H](CCC(=O)NCCCC[C@H](NC(=O)[C@H](CCC(N)=O)NC(=O)[C@H](C)NC(=O)[C@@H](NC(=O)[C@H](CCCCN)NC(=O)[C@H](CC(=O)O)NC(=O)[C@H](CC(C)C)NC(=O)[C@@H](NC(=O)[C@@H](NC(=O)[C@H](CO)NC(=O)[C@H](Cc1ccc(O)cc1)NC(=O)[C@H](CC(=O)O)NC(=O)[C@H](CO)NC(=O)[C@@H](NC(=O)[C@H](Cc1ccccc1)NC(=O)[C@@H](NC(=O)CNC(=O)[C@H](CCC(=O)O)NC(=O)[C@@H](NC(=O)[C@@H](N)Cc1ccc(O)cc1)C(C)C)[C@@H](C)O)[C@@H](C)O)[C@@H](C)CC)C(C)C)[C@@H](C)CC)C(=O)N[C@@H](C)C(=O)N[C@@H](Cc1ccccc1)C(=O)N[C@H](C(=O)N[C@@H](CCC(N)=O)C(=O)N[C@@H](Cc1c[nH]c2ccccc12)C(=O)N[C@@H](CC(C)C)C(=O)N[C@H](C(=O)N[C@@H](C)C(=O)NCC(=O)NCC(=O)N1CCC[C@H]1C(=O)N[C@@H](CO)C(=O)N[C@@H](CO)C(=O)NCC(=O)N[C@@H](C)C(=O)N1CCC[C@H]1C(=O)N1CCC[C@H]1C(=O)N1CCC[C@H]1C(=O)N[C@@H](CO)C(N)=O)[C@@H](C)CC)C(C)C)C(=O)O` [ID NO: 12] (HELM PEPTIDE1{Y.V.E.G.T.F.T.S.D.Y.S.I.V.L.D.K.I.A.Q.K.A.F.V.Q.W.L.I.A.G.G.P.S.S.G.A.P.P.P.S.[am]}|PEPTIDE2{[CCCCCCCCCCCCCCCC(=O)[*:2]].[gGlu]}$PEPTIDE1,PEPTIDE2,20:R3-2:R2$$$V2.0), the values for the EC50 in test [1] (setting [3]) and in test [2] (setting [4]) were 0.0561 nM and 0.00879 nM, respectively.

On to `CCCCCCCCCCCCCCCC(=O)N[C@@H](CCC(=O)NCCCC[C@H](NC(=O)[C@H](CCC(N)=O)NC(=O)[C@H](C)NC(=O)[C@@H](NC(=O)[C@H](CCCCN)NC(=O)[C@H](CC(=O)O)NC(=O)[C@H](CC(C)C)NC(=O)C1(NC(=O)[C@@H](NC(=O)[C@H](CO)NC(=O)[C@H](Cc2ccc(O)cc2)NC(=O)[C@H](CC(=O)O)NC(=O)[C@H](CO)NC(=O)[C@@H](NC(=O)[C@H](Cc2ccccc2)NC(=O)[C@@H](NC(=O)CNC(=O)[C@H](CCC(=O)O)NC(=O)C2(NC(=O)[C@@H](N)Cc3ccc(O)cc3)CCCC2)[C@@H](C)O)[C@@H](C)O)[C@@H](C)CC)CCCC1)[C@@H](C)CC)C(=O)N[C@@H](C)C(=O)N[C@@H](Cc1ccccc1)C(=O)N[C@H](C(=O)N[C@@H](CCC(N)=O)C(=O)N[C@@H](Cc1c[nH]c2ccccc12)C(=O)N[C@@H](CC(C)C)C(=O)N[C@H](C(=O)N[C@@H](C)C(=O)NCC(=O)NCC(=O)N1CCC[C@H]1C(=O)N[C@@H](CO)C(=O)N[C@@H](CO)C(=O)NCC(=O)N[C@@H](C)C(=O)N1CCC[C@H]1C(=O)N1CCC[C@H]1C(=O)N1CCC[C@H]1C(=O)N[C@@H](CO)C(N)=O)[C@@H](C)CC)C(C)C)C(=O)O` [ID NO: 14], for which the results for the EC50 in test [1] (setting [3]) and in test [2] (setting [4]) were 0.0311 nM and 0.0517 nM, respectively.

For the compound `CCCCCCCCCCCCCCCC(=O)N[C@@H](CCC(=O)NCCCC[C@H](NC(=O)[C@H](CCC(N)=O)NC(=O)[C@H](C)NC(=O)[C@@H](NC(=O)[C@H](CCCCN)NC(=O)[C@H](CC(=O)O)NC(=O)[C@H](CC(C)C)NC(=O)[C@H](C)NC(=O)[C@@H](NC(=O)[C@H](CO)NC(=O)[C@H](Cc1ccc(O)cc1)NC(=O)[C@H](CC(=O)O)NC(=O)[C@H](CO)NC(=O)[C@@H](NC(=O)[C@H](Cc1ccccc1)NC(=O)[C@@H](NC(=O)CNC(=O)[C@H](CCC(=O)O)NC(=O)[C@H](C)NC(=O)[C@@H](N)Cc1ccc(O)cc1)[C@@H](C)O)[C@@H](C)O)[C@@H](C)CC)[C@@H](C)CC)C(=O)N[C@@H](C)C(=O)N[C@@H](Cc1ccccc1)C(=O)N[C@H](C(=O)N[C@@H](CCC(N)=O)C(=O)N[C@@H](Cc1c[nH]c2ccccc12)C(=O)N[C@@H](CC(C)C)C(=O)N[C@H](C(=O)N[C@@H](C)C(=O)NCC(=O)NCC(=O)N1CCC[C@H]1C(=O)N[C@@H](CO)C(=O)N[C@@H](CO)C(=O)NCC(=O)N[C@@H](C)C(=O)N1CCC[C@H]1C(=O)N1CCC[C@H]1C(=O)N1CCC[C@H]1C(=O)N[C@@H](CO)C(N)=O)[C@@H](C)CC)C(C)C)C(=O)O` [ID NO: 15], the 50% effective concentration (EC50) in test [1] (setting [3]) worked out at 0.0429 nM; in test [2] (setting [4]) it was 0.0532 nM.

By EC50 is commonly meant the concentration at which the effect is half-maximal.
